The structures appear in SMILES notation.

For assay [1], the system named is MPTP treated mice. The assay is described as follows: Striatal dopamine levels in MPTP treated mice (HPLC). The class given is in vivo. The conditions noted are these: for dose required to restore dopamine levels when administered alone: MPTP challenged mice, data not shown. Here is the method:
Striatum tissue samples were homogenized in ice in 500 ul homogenization buffer (0.1M perchloric acid, 0.02% EDTA and 1% ETOH) using OMNI Tip homogenizing kit of OMNI International (intermediate speed, 3×10 seconds with 5 seconds intervals). The homogenates were sonicated for 5 minutes then centrifuged at 15,000 RPM at 4° C. for 15 min. The supernatants were transferred into fresh tubes and Dopamine content was analyzed by HPLC.
Saline-injected mice are used as control (naïve mice).

Assay [2] relates to MPTP treated mice. The assay is described as follows: Locomotion activity by Rota rod in MPTP treated mice. It is filed as in vivo. As to conditions: day 5, MPTP alone. On the procedure:
Saline-injected mice are used as control (naïve mice). Mice were treated according to the following plan:
FIGS. 3A-B show the locomotion activity as tested by Rota rod latency (FIG. 3A) and Rota rod distance (FIG. 3B) on day 5 of the study (5 drug administrations).

The subject of assay [3] is PC12 cells. The assay is described as follows: In vitro neuroprotection assay, serum-free medium induced apoptosis, MTT test. It is filed as cell-based, rat. As to conditions: serum starved PC12 cells, drugs alone or as DRA + MAO inhibitor combination. On the procedure:
(§1) For neuroprotection experiment cells were plated (1 or 0.5×10^5 Cells per well) on poly-L-lysine (Sigma) coated 96 wells tissue culture plates. Twenty four hours after plating the medium was exchanged with fresh growth medium with or without the tested drugs in the absence or presence of stressor. Cell cytotoxicity was induced by either serum starvation or Methyl-4phenylpyridium (MPP^+), 250 uM and 125 uM for PC12 and SK cells respectively. Drugs were added in different concentration alone and in combination, 30 minutes prior to the insult for a subsequent 48 or 72 hours. Neuronal cell injury was evaluated by a colorimetric assay for mitochondrial function using the MTT test (Sigma). The MTT test is based on the conversion of MTT to blue formasan crystals by viable cells. 5 mg/ml MIT reagent was added to each well (1:10 final dilution in each well). Cells were incubated for 1 hour at 37° C. and 5% CO2. Excess MIT was removed, and remaining formasan crystals were dissolved in 50 ul DMSO and were quantified in Elisa reader. The wavelength of the measurement of formasan product was 550 nm and the reference wavelength was 620 nm.
(§2) (a) PC12 and SK-N-SH Cells were incubated with 3 different concentrations of MPP+(125, 250, and 500 μM) or in growth medium lacking serum for 48 and 72 hours.
(§3) (b) Various drug combinations at various drug ratios as stated above were tested. The concentrations used were as follows: ropinirole, 400 μM, 200 μM, 100 μM, 50 μM; rasagiline, 400 μM, 200 μM, 100 μM, 50 μM, 10 μM; pramipexole, 400 μM, 200 μM, 100 μM, 50 μM; selegiline, 100, 50 μM, 10 μM, 1. Cell protection was detected by MTT.
(§4) The combinations used to treat serum-free medium induced apoptosis were ropinirole, 200 μM: rasagiline, 50 μM; ropinirole, 100 μM: rasagiline, 10 μM (FIG. 1A); pramipexole, 200 μM selegiline, 50 μM; pramipexole, 100 μM: selegiline, 10 μM (FIG. 1B); ropinirole, 200 μM: selegiline, 50 μM; and ropinirole, 100 μM: selegiline, 10 μM (FIG. 1C). […]

Assay [4] has as its system PC12 cells. The assay is described as follows: In vitro neuroprotection assay, MPP+ induced apoptosis, MTT test. It is filed as cell-based, rat. As to conditions: MPP+ treated PC12 cells, drugs alone or as DRA + MAO inhibitor combination. On the procedure: as §1, §2, §3, §4

In the case of `CN1CC=C(c2ccccc2)CC1` [MPTP, N-methyl-4-phenyl-1,2,3,6-tetrahydropyridine], the “depletion in dopamine levels relative to naïve mice” value with MPTP treated mice [1] (MPTP treatment alone) is “over 70%”. For the same compound, in the assay on MPTP treated mice [2], the “decrease in locomotion activity” value is on record as “about 30%”.

For the compound `CCCN[C@H]1CCc2nc(N)sc2C1` [pramipexole], in the assay on MPTP treated mice [1], the “dose required to restore dopamine levels when administered alone” value was “higher than 1 mg/kg”.

For `C#CCN[C@@H]1CCc2ccccc21` [rasagiline], the “dose required to restore dopamine levels when administered alone” value with MPTP treated mice [1] was “at least 0.5 mg/kg”. Moreover, the “increase in dopamine levels” value with MPTP treated mice [1] (high doses alone: 0.1 mg/kg rasagiline, 1 mg/kg pramipexole) is reported as “significant but small increase”. Besides, the “restoration of dopamine levels” value in the assay with MPTP treated mice [1] (low doses: rasagiline 0.05 mg/kg, pramipexole 0.5 mg/kg, alone or combined) is given as “did not cause a significant restoration of dopamine levels”. Besides, the “neuroprotection effect / cell survival (% viable cells)” value in the assay with PC12 cells [3] and in the assay on PC12 cells [4] was “the effect on neuroprotection was minor” in each case.

As to `CCCN(CCC)CCc1cccc2c1CC(=O)N2` [ropinirole], the “neuroprotection effect / cell survival (% viable cells)” value in the assay with PC12 cells [3] and with PC12 cells [4] was “the effect on neuroprotection was minor” throughout.

In the case of `C#CCN(C)[C@H](C)Cc1ccccc1` [selegiline], the “neuroprotection effect / cell survival (% viable cells)” value in the assay on PC12 cells [3] and with PC12 cells [4] was “the effect on neuroprotection was minor” each time.

For the origin of these results see US9259418B2 (priority 2008, dated 2016).
